In patent US20220251141A1, “IMMUNOMODULATORS” (Bristol-Myers Squibb Company, priority 2019, published 2022) one finds IC50 data, which are given here for 9 compounds.

Numbered stars: 1 amine (or outer) side, 2 acyl side, 3 side chain; on linkers, the order of the positions; unused ones are H or OH. Bridge positions count the residues as written; N and C are the ends. Square brackets hold non-standard residues; d marks the D form. Side chains are listed from the residue outwards. Peptide text beside a SMILES is read from it. * marks the point of attachment. X6 = CC(C)C[C@H](N[*:1])C(=O)C1C[C@H](O)C[C@H]1C(=O)[*:2]; Trp(1-CH2CO2Me) = COC(=O)Cn1cc(C[C@H](N)C(=O)O)c2ccccc21; Trp(1-CH2COOH) = N[C@@H](Cc1cn(CC(=O)O)c2ccccc12)C(=O)O; NHCH2CH2Ph(3,4-OCH2O) = c1cc2c(cc1CCN*)OCO2; Trp(1-Me) = Cn1cc(C[C@H](N)C(=O)O)c2ccccc21; X12 = CNC(=S)NCC[C@H](N[*:1])C(=O)[*:2]; Phe(4-F) = N[C@@H](Cc1ccc(F)cc1)C(=O)O; X11 = CNC(=S)NC[C@H](N[*:1])C(=O)[*:2]; Dab(CONH2) = NC(=O)NCC[C@H](N)C(=O)O; Hexyloxycarbonyl = CCCCCCOC(=O)*; Hyp = O=C(O)[C@@H]1C[C@@H](O)CN1; NMeNle = CCCC[C@H](NC)C(=O)O; Pip = O=C(O)[C@@H]1CCCCN1; NMeA = CN[C@@H](C)C(=O)O; Dab = NCC[C@H](N)C(=O)O; Dap = NC[C@H](N)C(=O)O; Hexanoyl = CCCCCC(=O)*; Boc = CC(C)(C)OC(=O)*; X10 = CC(C)(C)SC(=O)*; CO = O=C([*:1])[*:2]; Piv = CC(C)(C)C(=O)*; Moc = COC(=O)*

The assay has as its target T1, PD-1/PD-L1 (Homo sapiens, UniProt Q9NZQ7).
T1 construct: TVMV protease site linker (C); made in house; host or cells: HEK293T cells
Nature of the assay: PD-1/PD-L1 Homogenous Time-Resolved Fluorescence (HTRF) binding assay. Conditions: PD-L1-His 10 nM final, PD-1-Ig 20 nM final; inhibitors pre-incubated with PD-L1-His for 15 m. The method in brief:
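Compounds pre-incubated 15 min with human PD-L1(18-239)-His (10 nM final), then PD-1(25-167)-Ig (20 nM final) added for 15 min, in dPBS with 0.1% BSA and 0.05% Tween-20. Eu-cryptate anti-Ig (1 nM) and APC anti-His (20 nM) added, 30 min equilibration, 665/620 nm ratio read; IC50 reported.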
The IC50 is the concentration needed to halve the response being measured. In turn, `CCCC[C@H]1C(=O)N(C)[C@@H](CCCC)C(=O)N[C@@H](CC(C)C)C(=O)N[C@H](C(=O)NCC(N)=O)CSCC(=O)N[C@@H](Cc2ccc(O)cc2)C(=O)N(C)[C@@H](C)C(=O)N[C@H](CC(N)=O)C(=O)N2CCC[C@H]2C(=O)N[C@@H](CNC(=S)NC)C(=O)N[C@@H](CC(C)C)C(=O)N2C[C@H](O)C[C@H]2C(=O)N[C@@H](Cc2c[nH]c3ccccc23)C(=O)N[C@@H](CCNC(=S)NC)C(=O)N[C@@H](Cc2cn(CC(=O)O)c3ccccc23)C(=O)N1C` [Example 1027] ({CH2CO}-Y[NMeA][dN]P[X11]L[Hyp]W[X12][Trp(1-CH2COOH)][NMeNle][NMeNle]LCG-NH2; thioether N-14) gave an IC50 of 2 nM.
`CCCC[C@H]1C(=O)N(C)[C@@H](CCCC)C(=O)N[C@@H](CC(C)C)C(=O)N[C@H](C(=O)NCC(N)=O)CSCC(=O)N[C@@H](Cc2ccc(O)cc2)C(=O)N(C)[C@@H](C)C(=O)N[C@@H](CC(N)=O)C(=O)N2CCC[C@H]2C(=O)N[C@@H](CNC(=O)NCCc2ccc3c(c2)OCO3)C(=O)N[C@@H](CC(C)C)C(=O)N2C[C@H](O)C[C@H]2C(=O)N[C@@H](Cc2c[nH]c3ccccc23)C(=O)N[C@@H](CCNC(=O)NCCc2ccc3c(c2)OCO3)C(=O)N[C@@H](Cc2cn(CC(=O)O)c3ccccc23)C(=O)N1C` [Example 1048] ({CH2CO}-Y[NMeA]NP[Dap]([CO-NHCH2CH2Ph(3,4-OCH2O)])L[Hyp]W[Dab]([CO-NHCH2CH2Ph(3,4-OCH2O)])[Trp(1-CH2COOH)][NMeNle][NMeNle]LCG-NH2; thioether N-14) showed a half-inhibitory concentration (IC50) of 1.1 nM.
Consider `CCCCCC(=O)NCC[C@@H]1NC(=O)[C@H](Cc2c[nH]c3ccccc23)NC(=O)[C@@H]2C[C@@H](O)CN2C(=O)[C@H](CC(C)C)NC(=O)[C@H](CNC(=O)CCCCC)NC(=O)[C@@H]2CCCN2C(=O)[C@H](CC(N)=O)NC(=O)[C@H](C)N(C)C(=O)[C@H](Cc2ccc(O)cc2)NC(=O)CSC[C@@H](C(=O)NCC(N)=O)NC(=O)[C@H](CC(C)C)NC(=O)[C@H](CCCC)N(C)C(=O)[C@H](CCCC)N(C)C(=O)[C@H](Cc2cn(CC(=O)OC)c3ccccc23)NC1=O` [Example 1006] ({CH2CO}-Y[NMeA]NP[Dap](Hexanoyl)L[Hyp]W[Dab](Hexanoyl)[Trp(1-CH2CO2Me)][NMeNle][NMeNle]LCG-NH2; thioether N-14), for which the half-inhibitory concentration (IC50) amounted to 22 nM.
In turn, `CCCC[C@H]1C(=O)N(C)[C@@H](CCCC)C(=O)N[C@@H](CCC(=O)O)C(=O)N[C@H](C(N)=O)CSCC(=O)N[C@@H](Cc2ccc(F)cc2)C(=O)N2CCCC[C@H]2C(=O)N[C@@H](CC(N)=O)C(=O)N2CCC[C@H]2C(=O)N[C@@H](CNC(=O)C(C)(C)C)C(=O)N[C@@H](CC(C)C)C(=O)N2C[C@H](O)C[C@H]2C(=O)N[C@@H](Cc2c[nH]c3ccccc23)C(=O)N[C@@H](CCN)C(=O)N[C@@H](Cc2cn(CC(=O)O)c3ccccc23)C(=O)N1C` [Example 20130] ({CH2CO}-[Phe(4-F)][Pip]NP[Dap](Piv)L[Hyp]W[Dab][Trp(1-CH2COOH)][NMeNle][NMeNle]EC-NH2; thioether N-14) came in with an IC50 of 11.8 nM.
The same measure for `CCCC[C@H]1C(=O)N(C)[C@@H](CCCC)C(=O)N[C@@H](CC(C)C)C(=O)N[C@H](C(=O)NCC(N)=O)CSCC(=O)N[C@@H](Cc2ccc(O)cc2)C(=O)N(C)[C@@H](C)C(=O)N[C@@H](CC(N)=O)C(=O)N2CCC[C@H]2C(=O)N[C@@H](CNC(=O)OC(C)(C)C)C(=O)N[C@@H](CC(C)C)C(=O)C2C[C@H](O)C[C@H]2C(=O)N[C@@H](Cc2c[nH]c3ccccc23)C(=O)N[C@@H](CCNC(N)=O)C(=O)N[C@@H](Cc2cn(CC(=O)OC)c3ccccc23)C(=O)N1C` (stereo partly drawn) [Example 2001] ({CH2CO}-Y[NMeA]NP[Dap](Boc)[X6]W[Dab(CONH2)][Trp(1-CH2CO2Me)][NMeNle][NMeNle]LCG-NH2; thioether N-13): 3.4 nM.
The same measure for `CCCC[C@H]1C(=O)N(C)[C@@H](CCCC)C(=O)N[C@@H](CC(C)C)C(=O)N[C@H](C(=O)NCC(N)=O)CSCC(=O)N[C@@H](Cc2ccc(O)cc2)C(=O)N(C)[C@@H](C)C(=O)N[C@@H](CC(N)=O)C(=O)N2CCC[C@H]2C(=O)N[C@@H](CNC(=O)OC(C)(C)C)C(=O)N[C@@H](CC(C)C)C(=O)N2C[C@H](O)C[C@H]2C(=O)N[C@@H](Cc2c[nH]c3ccccc23)C(=O)N[C@@H](CCNC(=O)OC(C)(C)C)C(=O)N[C@@H](Cc2cn(CC(=O)O)c3ccccc23)C(=O)N1C` [Example 1014] ({CH2CO}-Y[NMeA]NP[Dap](Boc)L[Hyp]W[Dab](Boc)[Trp(1-CH2COOH)][NMeNle][NMeNle]LCG-NH2; thioether N-14): 6.1 nM.
In turn, `CCCC[C@H]1C(=O)N(C)[C@@H](CCCC)C(=O)N[C@@H](CC(C)C)C(=O)N[C@H](C(=O)NCC(N)=O)CSCC(=O)N[C@@H](Cc2ccc(O)cc2)C(=O)N(C)[C@@H](C)C(=O)N[C@@H](CC(N)=O)C(=O)N2CCC[C@H]2C(=O)N[C@@H](CNC(=O)SC(C)(C)C)C(=O)N[C@@H](CC(C)C)C(=O)N2C[C@H](O)C[C@H]2C(=O)N[C@@H](Cc2c[nH]c3ccccc23)C(=O)N[C@@H](CCNC(=O)OC)C(=O)N[C@@H](Cc2cn(CC(=O)O)c3ccccc23)C(=O)N1C` [Example 1024] ({CH2CO}-Y[NMeA]NP[Dap](X10)L[Hyp]W[Dab](Moc)[Trp(1-CH2COOH)][NMeNle][NMeNle]LCG-NH2; thioether N-14) showed a concentration for half-maximal inhibition (IC50) of 4.7 nM.
The same measure for `CCCC[C@H]1C(=O)N(C)[C@@H](CCCC)C(=O)N[C@@H](CCC(N)=O)C(=O)N[C@H](C(N)=O)CSCC(=O)N[C@@H](Cc2ccc(F)cc2)C(=O)N2CCCC[C@H]2C(=O)N[C@@H](CC(N)=O)C(=O)N2CCC[C@H]2C(=O)N[C@@H](CNC(=O)C(C)(C)C)C(=O)N[C@@H](CC(C)C)C(=O)N2C[C@H](O)C[C@H]2C(=O)N[C@@H](Cc2c[nH]c3ccccc23)C(=O)N[C@@H](CCN)C(=O)N[C@@H](Cc2cn(C)c3ccccc23)C(=O)N1C` [Example 20150] ({CH2CO}-[Phe(4-F)][Pip]NP[Dap](Piv)L[Hyp]W[Dab][Trp(1-Me)][NMeNle][NMeNle]QC-NH2; thioether N-14): 12.5 nM; for `CCCCCCOC(=O)NCC[C@@H]1NC(=O)[C@H](Cc2c[nH]c3ccccc23)NC(=O)[C@@H]2C[C@@H](O)CN2C(=O)[C@H](CC(C)C)NC(=O)[C@H](CNC(=O)OCCCCCC)NC(=O)[C@@H]2CCCN2C(=O)[C@H](CC(N)=O)NC(=O)[C@H](C)N(C)C(=O)[C@H](Cc2ccc(O)cc2)NC(=O)CSC[C@@H](C(=O)NCC(N)=O)NC(=O)[C@H](CC(C)C)NC(=O)[C@H](CCCC)N(C)C(=O)[C@H](CCCC)N(C)C(=O)[C@H](Cc2cn(CC(=O)OC)c3ccccc23)NC1=O` [Example 1016] ({CH2CO}-Y[NMeA]NP[Dap](Hexyloxycarbonyl)L[Hyp]W[Dab](Hexyloxycarbonyl)[Trp(1-CH2CO2Me)][NMeNle][NMeNle]LCG-NH2; thioether N-14): 12 nM.
